The values that follow come from the pKa sets of Baltruschat and Czodrowski (2020).

Molecules are shown by their SMILES.

For orientation: pKa means the negative logarithm of the acid dissociation constant. Low readings indicate a stronger acid or weaker base, high ones a weaker acid or stronger base. Where the note is “basic group”, `OC[C@H]1CCN2CCC[C@@H]12` came in with a pKa of 10.9.

`O=C([O-])C1CCNC1` (stereo not given) yielded a pKa (basic group) of 10.7.

Take `OCCN(CCO)c1ccccc1`: the pKa (basic group) worked out at 4.11.

Consider `NS(=O)(=O)c1cccc(C(F)(F)F)c1`, for which, for the setting “acidic group”, the pKa was 8.98.

Under “basic group”, `CSc1nccc2ccccc12` gave a pKa of 3.93.

With `COC(=O)c1ccc2ccccc2n1`, the pKa (basic group) came out at 1.75.

Under “basic group”, `O=[N+]([O-])c1cccc2nc3ccccc3c(NCCO)c12` registered a pKa of 7.2.

Regarding `CN(C1=NCCCO1)c1ccccc1`, the pKa (basic group) was determined as 10.7.

In the case of `Oc1oc(-c2ccccc2)nc1Cc1ccccc1`, where the note is “acidic group”, the pKa is 8.72.

In the case of `NCCc1ccc([N+](=O)[O-])cc1`, for the setting “basic group”, the pKa amounted to 9.42.

Under “basic group”, `Clc1cc(-c2ccccc2)nnc1NCCN1CCOCC1` had a pKa of 6.64.

Under “basic group”, `Cc1cc2ncn([C@H]3O[C@@H](CO)[C@H](O)[C@@H](O)[C@@H]3O)c2cc1C` yielded a pKa of 4.63.

As for `CCC(CC)C1(CC)C(=O)[N-]C(=S)NC1=O`, where the note is “acidic group”, the pKa came to 12.4.

Where the note is “basic group”, `CN(C)CC(C)(C)CN` came in with a pKa of 10.1.

Take `NCC(O)CO` (stereo not given): the pKa (basic group) came out at 9.3.

On to `CCCCCCCCCCCCCCCCCC(=O)O`, for which the pKa (acidic group) stood at 5.01.

Under “basic group”, `C[NH2+]CCN` registered a pKa of 7.49.

Turning to `Cc1cc(O)ccc1/N=N/c1ccc2c(c1)Cc1ccccc1-2`, the pKa (acidic group) was determined as 10.3.

Compound `CCCCCCCCCCCCCCCCN(CCCCCCCCCCCCCCCC)C(=O)[C@H](C)NC(=O)[C@H](Cc1c[nH]cn1)NC(=O)CCCCC[N+](C)(C)C.[Br-]` yielded a pKa (basic group) of 7.2.

The compound `Nc1ccc([N+](=O)[O-])c(B(O)O)c1` returned a pKa (acidic group) of 10.

`Cc1ccc([N+](=O)[O-])c2c(NCCC[NH+](C)C)c3ccccc3nc12`: for the setting “basic group”, the pKa came out at 6.29.

On to `c1ccc(-n2cnnn2)cc1`, for which the pKa (basic group) was -3.41.

For the compound `COc1ccc(NS(=O)(=O)c2ccccc2)cc1`, the pKa (acidic group) turned out to be 8.88.

Regarding `CC(C)N(C)/C=[NH+]/c1ccc(-c2c[nH]cn2)cc1`, the pKa (basic group) came out at 5.52.

For the compound `CN(C)c1ccc(C=O)cc1`, the pKa (basic group) was found to be 1.6.

Take `O=C1COCC(=O)C1=O`: the pKa (acidic group) was found to be 7.62.

Take `CC[NH+](CC)CCCC(C)Nc1cc[nH+]c2ccc(OC)cc12` (stereo not given): for the setting “basic group”, the pKa was -7.83.

As for `CNC(=S)c1ccccc1`, the pKa (basic group) was -2.5.

With `COC(=S)C1c2ccccc2-c2ccccc21`, the pKa (acidic group) was found to be 7.4.

In the case of `CN(C)c1ccc2nc3ccc(N)cc3nc2c1`, under “basic group”, the pKa came to 6.6.

`NCCCCc1ccncc1` came in with a pKa (basic group) of 10.2.

As for `Cc1ccccc1NC1CCCCC1`, where the note is “basic group”, the pKa came out at 5.34.

As to `O=C(O)Cc1[nH]c2ccccc2[nH+]1`, the pKa by setting is: (acidic group) 0.2; (basic group) -4.7.

In turn, `Cc1ccccc1[Se]CC(=O)O` came in with a pKa (acidic group) of 3.79.

`CCC(CC)C1(CC)C(=O)NC(=S)NC1=O`: the pKa (acidic group) came out at 7.46.

As to `O=C(O)CSc1ccc(S)cc1`, the pKa (acidic group) stood at 3.77.

Regarding `O=C([O-])C(NCC[NH2+]C(C(=O)[O-])c1ccccc1O)c1ccccc1O` (stereo not given), the pKa (basic group) stood at 6.32.

With `Cc1ccc(S(=O)(=O)NCCC(N)=[NH2+])cc1`, the pKa (acidic group) came out at 9.49.

On to `O=C([O-])c1ccc(O)c2ncccc12`, for which the pKa (acidic group) was determined as 9.32 and the pKa (basic group) worked out at 4.8.

`CBr` yielded a pKa (acidic group) of 15.4.

The compound `CC1=C(C)C(C(C)C(=O)O)CC1=O` (stereo not given) yielded a pKa (acidic group) of 4.4.

For the compound `O=C(NOC(=O)c1ccccc1)c1ccccc1`, the pKa (acidic group) amounted to 6.

Compound `Nc1ncc(Cl)s1` displayed a pKa (basic group) of 3.66.

Regarding `[NH3+]C(Cc1ccccc1)c1nnn[nH]1` (stereo not given), the pKa (acidic group) was determined as 1.93.

Compound `Cc1cc(N)nc(Nc2ccc(Cl)cc2)n1` returned a pKa (basic group) of 6.6.

Take `O/C(=C/c1cccnc1)c1ccccc1`: the pKa came to 8.79 (acidic group) and 5.84 (basic group).

Consider `Cc1ccc(C(=O)O)c(C)c1`, for which the pKa (acidic group) was determined as 4.18.

As to `Cn1c(C(=O)O)cc(=O)n(C)c1=O`, the pKa (acidic group) amounted to 0.8.

`CC(C)N(Cc1ccccc1O)C(C)C` displayed a pKa (acidic group) of 11.4 and a pKa (basic group) of 7.55.

Consider `Oc1cccc2[nH]ncc12`, for which the pKa (basic group) came out at 8.65.

The compound `CC[NH+](CC)CCCC(C)Nc1cc(OC)cc2cccnc12` (stereo not given) showed a pKa (basic group) of 3.63.

For `Nc1c(O)cccc1O`, the pKa runs as follows: (acidic group) 9.3; (basic group) 5.1.

Compound `ClC1CC2CCN1CC2` (stereo not given) yielded a pKa (basic group) of 6.98.

Turning to `CC(=O)OCCc1c[nH]cn1`, the pKa (basic group) amounted to 6.97.

For `CCCCCCNCc1ccc(C)cc1`, the pKa (basic group) came out at 10.2.

The compound `NCC[NH3+]` returned a pKa (basic group) of 7.14.

For the setting “basic group”, `O=[N+]([O-])c1cc(CN2CCCCC2)c([O-])c2ccccc12` had a pKa of 10.7.

With `Nc1cccc(N)c1O`, the pKa reads like this: (acidic group) 10.5; (basic group) 5.5.

On to `c1ncc2[nH]nnc2n1`, for which the pKa (acidic group) came to 4.88.

Regarding `C[C@H]([NH3+])C(=O)O`, where the note is “acidic group”, the pKa came to 2.42.

For the compound `Oc1nc2ccccc2c[nH+]1`, the pKa (acidic group) was found to be 1.3.

`N/C(=N\O)c1ccccc1N`: where the note is “basic group”, the pKa was 4.5.

Under “basic group”, `Nc1cccc2ccc([N+](=O)[O-])cc12` showed a pKa of 2.83.

Regarding `c1ccc(C2=NSC(N3CCOCC3)=NS2)cc1`, the pKa (basic group) was found to be 8.33.

`C/C(=C\Cl)C(=O)O`: the pKa (acidic group) was 4.03.

On to `[NH3+][C@@H](Cc1c[nH]c[nH+]1)C(=O)NCC(=O)O`, for which the pKa (acidic group) stood at 2.4.

Under “basic group”, `Cc1nccn1C` returned a pKa of 7.64.

`O=C(O)c1ccc([N+](=O)[O-])o1` returned a pKa (acidic group) of 2.06.

For the compound `NCC(O)c1ccc(Cl)cc1` (stereo not given), the pKa (basic group) was found to be 9.04.

The compound `Cc1cc(O)ccc1C(C)C` yielded a pKa (acidic group) of 10.3.

`Cc1cc([C@@H]([NH3+])CO)c(O)c([C@@H]([NH3+])CO)c1`: where the note is “acidic group”, the pKa came to 6.3.

In the case of `Oc1ccc2ccccc2[nH+]1`, the pKa (acidic group) came out at 0.31.

Where the note is “acidic group”, `CC[Si](C)(C)CC(=O)O` displayed a pKa of 5.4.

Regarding `O=C(O)c1cccc(O)c1`, the pKa reads like this: (acidic group) 4.07; (basic group) -1.01.

Under “basic group”, `[NH3+]CCC(=O)N[C@@H](Cc1cnc[nH]1)C(=O)[O-]` returned a pKa of 6.74.

Under “acidic group”, `Ic1nnn[nH]1` gave a pKa of 2.85.

In turn, `CCCCS` showed a pKa (acidic group) of 10.8.

The compound `COc1ccc(-c2ncc(-c3ccc([NH3+])cc3)o2)cc1` displayed a pKa (basic group) of 0.85.

In turn, `CC[C@H]1CN2CCc3cc(OC)c(OC)cc3[C@@H]2C[C@@H]1CC=O` gave a pKa (basic group) of 8.11.

For `CCc1c(O)ccc(C(C)C)c1C`, for the setting “acidic group”, the pKa stood at 10.8.

As to `Cn1c[nH+]c2cc(N)ccc21`, under “basic group”, the pKa is 3.09.

Under “acidic group”, `CC(c1cccc([N+](=O)[O-])c1)[N+](=O)[O-]` (stereo not given) showed a pKa of 6.67.

In turn, `COc1ccc(-c2ncc(-c3ccc(C)cc3)o2)cc1` returned a pKa (basic group) of 1.34.

For `NCCC=C(Cl)Cl`, the pKa (basic group) was found to be 9.85.

`N#Cc1ccc(O)cc1` registered a pKa (acidic group) of 7.89.

For the setting “basic group”, `Cc1ccc(C)c(C(=N)c2ccccc2)c1` yielded a pKa of 6.79.

Where the note is “basic group”, `CC(C)(C)c1cccc(C(C)(C)C)n1` displayed a pKa of 4.95.

Under “acidic group”, `Cc1coc(C)c1C(=O)O` yielded a pKa of 4.55.

The compound `C(=N\c1ccccc1)/Nc1ccccc1` came in with a pKa (basic group) of 6.3.

For `N[C@@H](CC(=O)[O-])C(=O)[O-]`, the pKa (basic group) turned out to be 9.54.

`O=C([O-])c1nc[nH]c1C(=O)[O-]` yielded a pKa (basic group) of 8.49.

In the case of `CCN(CC)CCC[C@@H](C)[C@H]1CC[C@H]2[C@@H]3CC[C@@H]4C[C@H](O)CC[C@]4(C)[C@H]3C[C@H](O)[C@]12C`, for the setting “basic group”, the pKa came to 10.3.

In turn, `CNCCCC(=O)[O-]` came in with a pKa (basic group) of 10.8.
